Laboratory results reported in patent US20230159527A1, “COMPOUNDS AS BCL-2 INHIBITORS” (Fochon Pharmaceuticals, Ltd., priority 2020, published 2023).

Key:
Type in all cases: cell-based
Toledo cells = assay: Cell proliferation assay, Toledo cells (MTS, 72 h); settings: Homo sapiens, Toledo cells, MTS, read-out: Toledo IC50
How it was run: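 Toledo cells (30000/well, RPMI-1640 with 10% FBS) were preincubated for 4 h. They were then exposed to nine compound concentrations from 10000 to 1.5 nM for 72 h at 37 °C, 5% CO2. MTS was added for 2 h and absorbance read at 490 nm to give IC50.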

RS4;11-BCL-2 G101V cells = assay: Cell proliferation assay, engineered RS4;11 cells stably overexpressing BCL-2 G101V (MTS, 168 h); settings: Homo sapiens, RS4-11, 168 h, read-out: RS4, 11 BCL2- G101V
How it was run: (§1)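 Proliferation read-out: MTS for exactly 2 h, then absorbance at 490 nm, with IC50 derived from the fit. Before this, engineered RS4;11 lines (BCL-2 G101V, F104L; 5000 cells/well) were exposed 168 h at 37 °C to serially diluted compound, final 1.4–10000 nM.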

RS4;11-BCL-2 F104L cells = assay: Cell proliferation assay, engineered RS4;11 cells stably overexpressing BCL-2 F104L (MTS, 168 h); settings: Homo sapiens, read-out: RS4, 11 BCL2-F104L
How it was run: as §1

CC(C)c1ccccc1[C@@H]1CCCN1C1CC2(CCN(c3ccc(C(=O)NS(=O)(=O)c4cc5c(c([N+](=O)[O-])c4)N[C@@H]([C@H]4CC[C@](C)(O)CC4)CO5)c(Oc4cc5cc[nH]c5nc4OC4CCN(C)CC4)c3)CC2)C1 (single isomer, unassigned) [Example D-229, N-(((S)-3-((1r,4S)-4-hydroxy-4-methylcyclohexyl)-5-nitro-3,4-dihydro-2H-benzo[b][1,4]oxazin-7-yl)sulfonyl)-4-(2-((R or S)-2-(2-isopropylphenyl)pyrrolidin-1-yl)-7-azaspiro[3.5]nonan-7-yl)-2-((6-((1-methylpiperidin-4-yl)oxy)-1H-pyrrolo[2,3-b]pyridin-5-yl)oxy)benzamide] gave an IC50 (Toledo cells) of 1 nM, an IC50 (RS4;11-BCL-2 G101V cells) of 1 nM and an IC50 (RS4;11-BCL-2 F104L cells) of 1 nM.
CC(C)c1ccccc1[C@@H]1CCCN1C1CC2(CCN(c3ccc(C(=O)NS(=O)(=O)c4cc5c(c([N+](=O)[O-])c4)N[C@@H]([C@H]4CC[C@](C)(O)CC4)CO5)c(Oc4cc5cc[nH]c5nc4Cl)c3)CC2)C1 (single isomer, unassigned) [Example D-18, 2-((6-chloro-1H-pyrrolo[2,3-b]pyridin-5-yl)oxy)-N-(((S)-3-((1r,4S)-4-hydroxy-4-methylcyclohexyl)-5-nitro-3,4-dihydro-2H-benzo[b] [1,4]oxazin-7-yl)sulfonyl)-4-(2-((R or S)-2-(2-isopropylphenyl)pyrrolidin-1-yl)-7-azaspiro[3.5]nonan-7-yl)benzamide] gave an IC50 (Toledo cells) of 1 nM, an IC50 (RS4;11-BCL-2 G101V cells) of 14 nM and an IC50 (RS4;11-BCL-2 F104L cells) of 33 nM.
CC(C)c1ccccc1[C@@H]1CCC[C@@H]1N1CC2(CCN(c3ccc(C(=O)NS(=O)(=O)c4cnc(NC[C@H]5CC[C@](C)(O)CC5)c([N+](=O)[O-])c4)c(Oc4cc5c(F)c[nH]c5nc4F)c3)CC2)C1 (single isomer, unassigned) [Example A-150, 2-((3,6-difluoro-1H-pyrrolo[2,3-b]pyridin-5-yl)oxy)-N-((6-((((1r,4r)-4-hydroxy-4-methylcyclohexyl)methyl)amino)-5-nitropyridin-3-yl)sulfonyl)-4-(2-((1S,2S or 1R,2R)-2-(2-isopropylphenyl)cyclo-petyl)-2,7-diazaspiro[3.5]nonan-7-yl) benzamide] was tested, and the IC50 (Toledo cells) was 1 nM, the IC50 (RS4;11-BCL-2 G101V cells) was 6 nM and the IC50 (RS4;11-BCL-2 F104L cells) was 1 nM.
Compound CC(C)c1ccccc1[C@@H]1CCCN1C1CC2(CCN(c3ccc(C(=O)NS(=O)(=O)c4cc5c(c([N+](=O)[O-])c4)N[C@@H]([C@H]4CC[C@](C)(O)CC4)CO5)c(Oc4cc5cc[nH]c5nc4OC[C@@H]4COCCN4)c3)CC2)C1 (single isomer, unassigned) [Example D-214, N-(((S)-3-((1r,4S)-4-hydroxy-4-methylcyclohexyl)-5-nitro-3,4-dihydro-2H-benzo[b][1,4]oxazin-7-yl)sulfonyl)-4-(2-((R or S)-2-(2-isopropylphenyl)pyrrolidin-1-yl)-7-azaspiro[3.5]nonan-7-yl)-2-((6-(((S)-morpholin-3-yl)methoxy)-1H-pyrrolo[2,3-b]pyridin-5-yl)oxy)benzamide] has an IC50 (Toledo cells) of 1 nM, an IC50 (RS4;11-BCL-2 G101V cells) of 1 nM and an IC50 (RS4;11-BCL-2 F104L cells) of 1 nM.
CC(C)c1ccccc1[C@@H]1CCC[C@@H]1N1CC2(CCN(c3ccc(C(=O)NS(=O)(=O)c4cc5c(c([N+](=O)[O-])c4)N[C@@H]([C@H]4CC[C@](C)(O)CC4)CO5)c(Oc4cc5c(F)c[nH]c5nc4F)c3)CC2)C1 (single isomer, unassigned) [Example D-96, 2-((3,6-difluoro-1H-pyrrolo[2,3-b]pyridin-5-yl)oxy)-N-(((S)-3-((1r,4S)-4-hydroxy-4-methylcyclohexyl)-5-nitro-3,4-dihydro-2H-benzo[b][1,4]oxazin-7-yl)sulfonyl)-4-(2-((1S,2S or 1R,2R)-2-(2-isopropylphenyl)cyclopentyl)-2,7-diazaspiro[3.5]nonan-7-yl)benzamide] was tested, and the IC50 (Toledo cells) was 1 nM, the IC50 (RS4;11-BCL-2 G101V cells) was 4 nM and the IC50 (RS4;11-BCL-2 F104L cells) was 1 nM.
With COc1nc2[nH]cc(F)c2cc1Oc1cc(N2CCC3(CC2)CN([C@H]2CCC[C@H]2c2ccccc2C(C)C)C3)ccc1C(=O)NS(=O)(=O)c1cnc(NC[C@H]2CC[C@](C)(O)CC2)c([N+](=O)[O-])c1 (single isomer, unassigned) [Example A-152, 2-((3-fluoro-6-methoxy-1H-pyrrolo [2,3-b]pyridin-5-yl)oxy)-N-((6-(((1r, 4r)-4-hydroxy-4-methylcyclohexyl)methyl)amino)-5-nitropyridin-3-yl) sulfonyl)-4-(2-((1S,2S or 1R,2R)-2-(2-isopropylphenyl)cyclo-pentyl)-2,7-diazaspiro[3.5]nonan-7-yl) benzamide] the IC50 (Toledo cells) was 1 nM, the IC50 (RS4;11-BCL-2 G101V cells) was 40 nM and the IC50 (RS4;11-BCL-2 F104L cells) was 9 nM.
CC(C)c1ccccc1[C@@H]1CCCN1C1CC2(CCN(c3ccc(C(=O)NS(=O)(=O)c4cc5c(c([N+](=O)[O-])c4)N[C@@H]([C@H]4CC[C@](C)(O)CC4)CO5)c(Oc4cc5cc[nH]c5nc4OC[C@H]4COCCN4)c3)CC2)C1 (single isomer, unassigned) [Example D-216, N-(((S)-3-((1r,4S)-4-hydroxy-4-methylcyclohexyl)-5-nitro-3,4-dihydro-2H-benzo[b][1,4]oxazin-7-yl)sulfonyl)-4-(2-((R or S)-2-(2-isopropylphenyl)pyrrolidin-1-yl)-7-azaspiro[3.5]nonan-7-yl)-2-((6-(((R)-morpholin-3-yl)methoxy)-1H-pyrrolo[2,3-b]pyridin-5-yl)oxy)benzamide] showed an IC50 (Toledo cells) of 1 nM, an IC50 (RS4;11-BCL-2 G101V cells) of 1 nM and an IC50 (RS4;11-BCL-2 F104L cells) of 1 nM.
CC(C)c1ccccc1[C@@H]1CCCN1C1CC2(CCN(c3ccc(C(=O)NS(=O)(=O)c4cc5c(c([N+](=O)[O-])c4)N[C@@H]([C@H]4CC[C@](C)(O)CC4)CO5)c(Oc4cc5cc[nH]c5nc4OCCN4CCC4)c3)CC2)C1 (single isomer, unassigned) [Example D-61, 2-((6-(2-(azetidin-l-yl)ethoxy)-1H-pyrrolo[2,3-b]pyridin-5-yl)oxy)-N-(((S)-3-((1r,4S)-4-hydroxy-4-methylcyclohexyl)-5-nitro-3,4-dihydro-2H-benzo[b][1,4]oxazin-7-yl)sulfonyl)-4-(2-((R or S)-2-(2-isopropylphenyl)pyrrolidin-1-yl)-7-azaspiro[3.5]nonan-7-yl)benzamide] gave an IC50 (Toledo cells) of 1 nM, an IC50 (RS4;11-BCL-2 G101V cells) of 1 nM and an IC50 (RS4;11-BCL-2 F104L cells) of 11 nM.
Compound COCCOc1nc2[nH]ccc2cc1Oc1cc(N2CCC3(CC2)CC(N2CCC[C@H]2c2ccccc2C(C)C)C3)ccc1C(=O)NS(=O)(=O)c1cc2c(c([N+](=O)[O-])c1)N[C@@H]([C@H]1CC[C@](C)(O)CC1)CO2 (single isomer, unassigned) [Example D-17, N-(((S)-3-((1r,4S)-4-hydroxy-4-methylcyclohexyl)-5-nitro-3,4-dihydro-2H-benzo[b][1,4]oxazin-7-yl)sulfonyl)-4-(2-((R or S)-2-(2-isopropylphenyl)pyrrolidin-1-yl)-7-azaspiro[3.5]nonan-7-yl)-2-((6-(2-methoxyethoxy)-1H-pyrrolo[2,3-b]pyridin-5-yl)oxy) benzamide] has an IC50 (Toledo cells) of 1 nM, an IC50 (RS4;11-BCL-2 G101V cells) of 1 nM and an IC50 (RS4;11-BCL-2 F104L cells) of 22 nM.
COCCOc1nc2[nH]cc(F)c2cc1Oc1cc(N2CCC3(CC2)CC(N2CCC[C@H]2c2ccccc2C(C)C)C3)ccc1C(=O)NS(=O)(=O)c1cc2c(c([N+](=O)[O-])c1)N[C@@H]([C@H]1CC[C@](C)(O)CC1)CO2 (single isomer, unassigned) [Example D-71, 2-((3-fluoro-6-(2-methoxyethoxy)-1H-pyrrolo[2,3-b]pyridin-5-yl)oxy)-N-(((S)-3-((1r,4S)-4-hydroxy-4-methylcyclohexyl)-5-nitro-3,4-dihydro-2H-benzo[b][1,4]oxazin-7-yl)sulfonyl)-4-(2-((R or S)-2-(2-isopropylphenyl)pyrrolidin-1-yl)-7-azaspiro[3.5]nonan-7-yl)benzamide] showed an IC50 (Toledo cells) of 1 nM, an IC50 (RS4;11-BCL-2 G101V cells) of 13 nM and an IC50 (RS4;11-BCL-2 F104L cells) of 12 nM.
CC(C)c1ccccc1[C@@H]1CCCN1C1CC2(CCN(c3ccc(C(=O)NS(=O)(=O)c4cc5c(c([N+](=O)[O-])c4)N[C@@H]([C@H]4CC[C@](C)(O)CC4)CO5)c(Oc4cc5cc[nH]c5nc4OC[C@@H]4COCCN4C)c3)CC2)C1 (single isomer, unassigned) [Example D-135, N-(((S)-3-((1r,4S)-4-hydroxy-4-methylcyclohexyl)-5-nitro-3,4-dihydro-2H-benzo[b][1,4]oxazin-7-yl)sulfonyl)-4-(2-((R or S)-2-(2-isopropylphenyl)pyrrolidin-1-yl)-7-azaspiro[3.5]nonan-7-yl)-2-((6-(((S)-4-methylmorpholin-3-yl)methoxy)-1H-pyrrolo[2,3-b]pyridin-5-yl)oxy)benzamide] showed an IC50 (Toledo cells) of 1 nM, an IC50 (RS4;11-BCL-2 G101V cells) of 1 nM and an IC50 (RS4;11-BCL-2 F104L cells) of 1 nM.
CCOc1nc2[nH]cc(F)c2cc1Oc1cc(N2CCC3(CC2)CC(N2CCC[C@H]2c2ccccc2C(C)C)C3)ccc1C(=O)NS(=O)(=O)c1cc2c(c([N+](=O)[O-])c1)N[C@@H]([C@H]1CC[C@](C)(O)CC1)CO2 (single isomer, unassigned) [Example D-85, 2-((6-ethoxy-3-fluoro-1H-pyrrolo [2,3-b]pyridin-5-yl)oxy)-N-(((S)-3-((1r,4S)-4-hydroxy-4-methylcyclohexyl)-5-nitro-3,4-dihydro-2H-benzo[b][1,4]oxazin-7-yl)sulfonyl)-4-(2-((R or S)-2-(2-isopropylphenyl)pyrrolidin-1-yl)-7-azaspiro[3.5]nonan-7-yl)benzamide] was tested, and the IC50 (Toledo cells) was 1 nM, the IC50 (RS4;11-BCL-2 G101V cells) was 28 nM and the IC50 (RS4;11-BCL-2 F104L cells) was 5 nM.
